Source: article PMC11875561, “Molecular Insights into the Heme‐Binding Potential of Plant NCR247‐Derived Peptides” (Chembiochem, 2025)
Bridge positions count the residues as written; N and C are the ends. Ends that are not written are not given here.

Columns and labels:
[1] = target: NCR247_reduced; assay: UV/vis difference-spectroscopic titration of peptide (10 or 20 uM) with heme (0.4-40 uM) in 100 mM HEPES pH 7.0 after 1 min incubation, evaluated near 428 nm for one binding site.
Experimental: (§1) Heme binding to the NCR247 parent peptide and its analogues was assessed using UV/vis spectroscopy (Table S2) following an earlier established experimental set‐up,[27, 30, 31, 32] with heme (0.4 to 40 μM) titrated to NCR247 peptide (20 μM) in 100 mM HEPES buffer (pH 7.0). […] The KD value for this peptide was first determined by adjusting the established protocol[30] to 1 min incubation time, while at an incubation time of 30 min concomitant oxidation of the cysteine residues has taken place as indicated by the fact that a stable complex was formed only in the first minutes and then a change in the spectrum occurred which is due to disulfide bond formation changing the heme‐binding behaviour of the peptide. […]
(§2) Heme binding to the NCR247-derived peptides (Fig. 1, Table S1) was investigated by UV/vis spectroscopy, as described earlier.[2,3,7– 9] […] Absorbance spectra were recorded on a Multiskan GO spectrophotometer (ThermoScientific, Dreieich, Germany) in the range of 300 - 600 nm. Difference spectra were generated by subtracting the spectra of heme and peptide alone from the absorbance spectrum of the hemin-peptide complex. Dissociation constants (KD) were determined by using GraphPad Prism 10.0.2 and the earlier established equation from Pîrnău and Bogdan, as described elsewhere.[7,10]

[2] = target: NCR247_reduced; assay: UV/vis difference-spectroscopic titration of peptide (10 or 20 uM) with heme (0.4-40 uM) in 100 mM HEPES pH 7.0 after 30 min incubation at room temperature, one binding site.
Experimental: Heme binding to the NCR247 parent peptide and its analogues was assessed using UV/vis spectroscopy (Table S2) following an earlier established experimental set‐up,[27, 30, 31, 32] with heme (0.4 to 40 μM) titrated to NCR247 peptide (20 μM) in 100 mM HEPES buffer (pH 7.0). […] time, while at an incubation time of 30 min concomitant oxidation of the cysteine residues has taken place as indicated by the fact that a stable complex was formed only in the first minutes and then a change in the spectrum occurred which is due to disulfide bond formation changing the heme‐binding behaviour of the peptide.
Figure 4 Heme‐binding analysis of NCR247 peptides. […] The complex formation was analysed after incubating it for 30 min at room temperature. The change in the spectral behaviour when measured after 1 min and 30 min of complex incubation is noteworthy. The intensity of the bands at λ =364 nm, indicate a change in the peptide and can be attributed to concomitant oxidation of free Cys residues in aqueous buffer systems, making the Soret band at λ =428 nm more prominent, similar to the one observed in case of the oxidized isomers. d, Peroxidase‐like activity assay of heme‐NCR247 complex measured using an oxidative conversion of TMB substrate at 652 nm. […]

[3] = target: T1, NCR247_1-2,3-4; assay: as above
T1 construct: synthetic 24mer, oxidized isomer, disulfides Cys4-Cys10 and Cys15-Cys21
Experimental: (§3) Heme binding to the NCR247 parent peptide and its analogues was assessed using UV/vis spectroscopy (Table S2) following an earlier established experimental set‐up,[27, 30, 31, 32] with heme (0.4 to 40 μM) titrated to NCR247 peptide (20 μM) in 100 mM HEPES buffer (pH 7.0). […] The KD value for this peptide was first determined by adjusting the established protocol[30] to 1 min incubation time, while at an incubation time of 30 min concomitant oxidation of the cysteine residues has taken place as indicated by the fact that a stable complex was formed only in the first minutes and then a change in the spectrum occurred which is due to disulfide bond formation changing the heme‐binding behaviour of the peptide.
(§4) Figure 4 Heme‐binding analysis of NCR247 peptides. UV/vis spectroscopic analysis upon addition of increasing concentrations of heme (0.4–40 μM) to NCR247 oxidized isomers (on the left), in silico docking analysis (in the middle) showing residues involved in heme binding and rRaman spectra of heme‐peptide (1 : 1) complex (on the right). a, NCR247_1–3,2–4. b, NCR247_1–2,3–4. c, NCR247_reduced form, with free Cys residues. The complex formation was analysed after incubating it for 30 min at room temperature. The change in the spectral behaviour when measured after 1 min and 30 min of complex incubation is noteworthy. The intensity of the bands at λ =364 nm, indicate a change in the peptide and can be attributed to concomitant oxidation of free Cys residues in aqueous buffer systems, making the Soret band at λ =428 nm more prominent, similar to the one observed in case of the oxidized isomers. d, Peroxidase‐like activity assay of heme‐NCR247 complex measured using an oxidative conversion of TMB substrate at 652 nm. […]
(§5) Under oxidative reaction conditions, the cysteines were deprotected and folded by formation of the disulfide bridges between the cysteines according to protocols reported earlier.[4,5] […]

[4] = target: T2, NCR247_1-3,2-4; assay: as above
T2 construct: synthetic 24mer, oxidized isomer, disulfides Cys4-Cys15 and Cys10-Cys21
Experimental: as §3, §4, §5

[5] = target: T3, NCR247_1-4,2-3; assay: as above
T3 construct: synthetic 24mer, oxidized isomer, disulfides Cys4-Cys21 and Cys10-Cys15
Experimental: as §3, §4, §5

[6] = target: T4, MBP (Escherichia coli, UniProt P0AEX9); assay: UV/vis spectroscopic titration of MBP (10 uM) with heme (4-40 uM) in HEPES pH 7.0 after 30 min incubation, 1:1 model, Soret band near 400 nm.; type: binding; details: read-out: KD value, stoichiometry 1:1 (MBP:heme)
T4 construct: gene malE; commercial (Rockland Inc.)
Experimental: We thus conducted UV/vis measurements[36, 41] by titrating increasing concentrations of heme (4–40 μM) to the protein (10 μM).
(§21) UV/vis titration experiments of peptides and proteins with heme.
(§22) Maltose-binding protein (Rockland Inc. Pennsylvania, USA) (10 µM) was preincubated with heme in different concentrations (4 - 40
(§23) µM) for 30 min in HEPES buffer (pH 7.0) prior to the UV/vis spectroscopic analysis. Subsequently, absorbance spectra were recorded
and analysed analogously to the heme-binding studies with the peptides described above.[2]

[7] = target: MBP-NCR247_1-4,2-3; assay: UV/vis spectroscopic titration of preformed MBP (10 uM) plus NCR247_1-4,2-3 (10 uM) with heme (4-45 uM), 30 min incubation, evaluated near 420 nm with a 1:1 model.; type: binding; details: read-out: KD value, stoichiometry 1:1 (MBP-NCR247_1-4,2-3:heme)
Experimental: (§6) Peroxidase-like activity of the heme-peptide complexes.
(§7) 10 μl of the heme-peptide complex (final concentration:
(§8) (100%) and evaluated as the average of triplicate measurements.
(§9) Subsequently, absorbance spectra were recorded
(§10) Similar to the aforementioned approach,
(§11) NCR247 was added and measured spectroscopically.
(§12) Resonance Raman spectroscopy of the heme-peptide complexes.
(§13) -60°C (ANDOR, Ireland, 1024x127 pixels) used for detection.
(§14) were combined in an equimolar ratio.
(§15) The raw Raman spectra were
(§16) visualised using the graphing software OriginPro 2016G Sr2.
(§17) clipping (SNIP) algorithm, and vector normalisation.
(§18) Circular Dichroism (CD) spectroscopy with NCR247-derived peptides.
(§19) All the peptide solutions were prepared
(§20) prediction tool. […] The structure

[8] = target: MBP-NCR247_1-4,2-3; assay: UV/vis spectroscopic titration of preformed MBP (10 uM) plus NCR247_1-4,2-3 (10 uM) with heme (4-45 uM), 30 min incubation, evaluated with a model of two heme molecules per complex.; details: read-out: KD value, two heme molecules binding to the MBP-NCR247_1-4,2-3 complex
Experimental: as §6, §7, §8, §9, §10, §11, §12, §13, §14, §15, §16, §17, §18, §19, §20

[9] = UV/vis titration of MBP in complex with NCR247_1–4,2–3 with heme; details: peptide versus MBP
Experimental: as §21, §22, §23
and analysed analogously to the heme-binding studies with the peptides described above.[2] Similar to the aforementioned approach,
NCR247 was added and measured spectroscopically. In addition to this, 10 µM NCR247_1-4,2-3 was incubated with increasing

[10] = UV/vis spectroscopy heme binding to NCR247-derived peptides; details: 30 min incubation; Soret λ ~420 nm (oxidized isomers) or ~428 nm (reduced); n=1; peptide 20 μM, heme 0.4-40 μM, 100 mM HEPES pH 7.0
Experimental: as §1, §2

[11] = parameters: method as in earlier work; details: ref 11 (Sankari et al.); cited from earlier work

In the case of `C=CC1=C(C)c2cc3[nH]c(cc4nc(cc5[nH]c(cc1n2)c(C)c5CCC(=O)O)C(CCC(=O)O)=C4C)c(C)c3C=C.[Fe+3]` [heme, Fe(III) protoporphyrin IX (Fe(III)PPIX, hemin)], the Kd [1] is reported as 1.44 µM, the Kd [2] is reported as 2270 nM and the Kd [3] is reported as 2980 nM. It also gave a Kd [4] of 2090 nM, a Kd [5] of 2800 nM and a Kd [6] of 7200 nM. The Kd [7] was 14900 nM and the Kd [8] was 7600 nM.
With “NCR247_1–4,2–3: RNGCIVDPRCPYQQCRRPLYCRRR, isomer with bridges Cys4‐Cys21 and Cys10‐Cys15 (disulfide 10-15, 4-21)” the “binding affinity of the peptide compared to the protein (MBP)” value [9] was “two‐fold higher”.
In the case of “NSR247: RNGSIVDPRSPYQQSRRPLYSRRR, mutant with all cysteine residues replaced with serine, negative control”, the KD heme binding [10] is given as “n.b. and completely lost and absence of heme binding” and the heme-binding affinity [11] is given as “μM range”.
